Reference: ChEMBL document CHEMBL1124165, “1-(2,3-Anhydro-beta-D-lyxofuranosyl)cytosine derivatives as potential inhibitors of the human immunodeficiency virus” (J Med Chem, 1988)

Test system: ATH-8 cell line
Assay: Tested in vitro for concentration with significant protective effect on ATH8 cells exposed to HIV; No significant effect at concentrations 100 uM
Format: functional, cell-based
Details: Homo sapiens

Question: With `CNc1ccn([C@@H]2O[C@H](CO)[C@H]3OC23)c(=O)n1` (some centres undefined) as the molecule, how does the Concentration read?
Answer: No significant effect at concentrations 100 uM

Question: How did the Concentration turn out when `COc1ccn([C@@H]2O[C@H](CO)[C@H]3OC23)c(=O)n1` (some centres undefined) was run?
Answer: No significant effect at concentrations 100 uM

Question: `Cc1cn([C@@H]2O[C@H](CO)[C@H]3OC23)c(=O)[nH]c1=O` (some centres undefined) was tested. Which Concentration did it give?
Answer: No significant effect at concentrations 100 uM

Question: `Cc1cn([C@@H]2O[C@H](CO)C[C@@H]2O)c(=O)[nH]c1=O` was tested. Which Concentration did it give?
Answer: No significant effect at concentrations 100 uM

Question: For `[N-]=[N+]=N[C@@H]1C(O)[C@H](n2ccc(=O)[nH]c2=O)O[C@@H]1CO` (some centres undefined), which Concentration is on record?
Answer: No significant effect at concentrations 100 uM

Question: Which Concentration does the source give for `[N-]=[N+]=N[C@@H]1C(O)[C@H](n2ccc(N)nc2=O)O[C@@H]1CO` (some centres undefined) here?
Answer: No significant effect at concentrations 100 uM

Question: How did the Concentration turn out when `O=c1[nH]c(=O)n([C@@H]2O[C@H](CO)[C@H]3OC23)cc1Br` (some centres undefined) was run?
Answer: No significant effect at concentrations 100 uM

Question: For `Cc1cn([C@@H]2O[C@H](CO)[C@H](N=[N+]=[N-])C2O)c(=O)[nH]c1=O` (some centres undefined), which Concentration is on record?
Answer: No significant effect at concentrations 100 uM

Question: How did the Concentration turn out when `C[C@H]1[C@H](O)[C@H](n2ccc(=O)[nH]c2=O)O[C@@H]1CO` was run?
Answer: No significant effect at concentrations 100 uM

Question: How did the Concentration turn out when `O=c1nc(NO)ccn1[C@@H]1O[C@H](CO)[C@H]2OC12` (some centres undefined) was run?
Answer: No significant effect at concentrations 100 uM

Question: With `O=c1ccn([C@@H]2O[C@H](CO)[C@H]3OC23)c(=O)[nH]1` (some centres undefined) as the molecule, how does the Concentration read?
Answer: No significant effect at concentrations 100 uM

Question: With `Nc1ccn([C@@H]2O[C@H](CO)C[C@@H]2O)c(=O)n1` as the molecule, how does the Concentration read?
Answer: No significant effect at concentrations 100 uM

Species on record: Homo sapiens
Assay: Tested in vitro for concentration with significant protective effect on CD4+ cells exposed to HIV
Format: functional
Details: not given

Question: `Nc1ccn([C@@H]2O[C@H](CO)[C@H]3OC23)c(=O)n1` (some centres undefined) was tested. Which Concentration did it give?
Answer: 5 µM

Test system: ATH-8 cell line
Assay: Tested in vitro for concentration with significant protective effect on ATH8 cells exposed to HIV
Format: functional, cell-based
Details: Homo sapiens

Question: With `Nc1ccn([C@@H]2O[C@H](CO)[C@H]3OC23)c(=O)n1` (some centres undefined) as the molecule, how does the Concentration read?
Answer: 5 µM
